Test results published in PMC3804605, “Expression and Antimicrobial Function of Beta-Defensin 1 in the Lower Urinary Tract” (PLoS ONE, 2013).

B1: RNase 7: Recombinant human RNase 7, used to verify sensitivity of UTI89 to killing by antimicrobial peptides (protein, UniProt Q9H1E1 29-156, looked up)
Ribonuclease 7: KPKGMTSSQWFKIQHMQPSPQACNSAMKNINKHTKRCKDLNTFLHEPFSSVAATCQTPKIACKNGDKNCHQSHGAVSLTMCKLTSGKHPNCRYKEKRQNKSYVVACKPPQKKDSQQFHLVPVHLDRVL

Test system: UPEC strain UTI89
Experiment: Microdilution bactericidal assay of recombinant antimicrobial peptides (CFU count, MIC)
Type: cell-based, Escherichia coli
Details: for bactericidal activity toward UPEC in vitro (in words): UTI89, recombinant peptide, microdilution assay; for minimum inhibition concentration (MIC), lowest peptide concentration inhibiting growth of 90% of the inoculum: UTI89 10^5 CFU, 0.3125-10 µM peptide in 50 µl 0.1X PBS, 3 hours at 37°C, then plated overnight on LB, CFU versus untreated bacteria
Method: Recombinant mBD-3 was synthesized in E. coli (5987-BD, R&D Systems, Minneapolis, MN). Recombinant mBD-14 was synthesized as a mature peptide in E. coli and purified as described. Antimicrobial activity of recombinant peptides was evaluated by microdilution assay. Briefly, UTI89 bacteria (10^5 CFU) were incubated with 0.3125, 0.625, 1.25, 2.5, 5, or 10 µM of mBD-3 or mBD-14 in 50 µl 0.1X PBS buffer for 3 hours at 37°C, then plated overnight on LB at 37°C. Next, the number of CFU at each concentration of peptide was determined. Using untreated bacteria as baseline, the minimum inhibition concentration (MIC) was identified by the lowest peptide concentration inhibiting growth of 90% of the inoculum as described previously. Sensitivity of the UTI89 bacterial strain to killing by antimicrobial peptides was verified with the use of recombinant human RNase 7, yielding MIC of 0.2-0.4 µM, consistent with published data[24].

| Molecule | bactericidal activity toward UPEC in vitro (in words) | minimum inhibition concentration (MIC), lowest peptide concentration inhibiting growth of 90% of the inoculum [µM] |
| --- | --- | --- |
| mBD-14: Recombinant mBD-14 synthesized as a mature peptide in E. coli and purified; protein encoded by Defb14 (FLPKTLRKFFCRIRGGRCAVLNCLGKEEQIGRCSNSGRKCCRKKK; UniProt Q7TNV9 23-67, looked up) | dose-dependent bactericidal activity |  |
| mBD-3: Recombinant mBD-3 synthesized in E. coli (5987-BD, R&D Systems); protein encoded by Defb3 (KKINNPVSCLRKGGRCWNRCIGNTRQIGSCGVPFLKCCKRK; UniProt Q9WTL0 23-63, looked up) | dose-dependent bactericidal activity | 1.25 to 2.5 |
| B1 |  | 0.2 to 0.4 |
